# Legend:
# Assay type in all cases: cell-based, human
# NCI-H23 = assay: NCI screening panel, NCI-H23 (Non-Small Cell Lung Cancer)
# Procedure: (§1) Representative compounds of Formula I were screened using the National Cancer Institute (NCI) screening panel, which consists of a panel of human tumor cell lines, representing leukemia, melanoma, and cancers of the lung, colon, ovary, breast, prostate and renal system.
# (§2) After 24 h, two plates of each cell line are fixed in situ with TCA, to represent a measurement of the cell population for each cell line at the time of drug addition (Tz). Experimental drugs are solubilised in dimethyl sulfoxide at 400-fold the desired final maximum test concentration and stored frozen prior to use. At the time of drug addition, an aliquot of frozen concentrate is thawed and diluted to twice the desired final maximum test concentration with complete medium containing 50 μg/mL gentamicin. Additional four, 10-fold or ½ log serial dilutions are made to provide a total of five drug concentrations plus control. Aliquots of 100 μl of these different drug dilutions are added to the appropriate microtiter wells already containing 100 μl of medium, resulting in the required final drug concentrations.
# (§3) Following drug addition, the plates are incubated for an additional 48 h at 37° C., 5% CO2, 95% air, and 100% relative humidity. For adherent cells, the assay is terminated by the addition of cold TCA (trichloroacetic acid). Cells are fixed in situ by the gentle addition of 50 μl of cold 50% (w/v) TCA (final concentration, 10% TCA) and incubated for 60 minutes at 4° C. The supernatant is discarded, and the plates are washed five times with tap water and air dried. Sulforhodamine B (SRB) solution (100 μl) at 0.4% (w/v) in 1% acetic acid is added to each well, and plates are incubated for 10 minutes at room temperature. After staining, unbound dye is removed by washing five times with 1% acetic acid and the plates are air dried. Bound stain is subsequently solubilised with 10 mM trizma base, and the absorbance is read on an automated plate reader at a wavelength of 515 nm. For suspension cells, the methodology is the same except that the assay is terminated by fixing settled cells at the bottom of the wells by gently adding 50 μl of 80% TCA (final concentration, 16% TCA). Using the seven absorbance measurements [time zero, (Tz), control growth, (C), and test growth in the presence of drug at the five concentration levels (Ti)], the percentage growth is calculated at each of the drug concentrations levels. Percentage growth inhibition is calculated as: [(Ti−Tz)/(C−Tz)]×100 for concentrations for which Ti>/=Tz and [(Ti−Tz)/Tz]×100 for concentrations for which Ti<Tz.
# (§4) Three dose response parameters are calculated for each experimental agent. Growth inhibition of 50% (GI50) is calculated from [(Ti−Tz)/(C−Tz)]×100=50, which is the drug concentration resulting in a 50% reduction in the net protein increase (as measured by SRB staining) in control cells during the drug incubation. The drug concentration resulting in total growth inhibition (TGI) is calculated from Ti=Tz. The LC50 (concentration of drug resulting in a 50% reduction in the measured protein at the end of the drug treatment as compared to that at the beginning) indicating a net loss of cells following treatment is calculated from [(Ti−Tz)/Tz]×100=−50. Values are calculated for each of these three parameters if the level of activity is reached. However, if the effect is not reached or is exceeded, the value for that parameter is expressed as greater or less than the maximum or minimum concentration tested.
# PC-3 = assay: NCI screening panel, PC-3 (Prostate Cancer)
# Procedure: as §1, §2, §3, §4
# 786-0 = assay: NCI screening panel, 786-0 (Renal Cancer)
# Procedure: as §1, §2, §3, §4
# COLO 205 = assay: NCI screening panel, COLO 205 (Colon Cancer)
# Procedure: as §1, §2, §3, §4
# MCF7 = assay: NCI screening panel, MCF7 (Breast Cancer)
# Procedure: as §1, §2, §3, §4
# LOX IMVI = assay: NCI screening panel, LOX IMVI (Melanoma)
# Procedure: as §1, §2, §3, §4
# RPMI-8226 = assay: NCI screening panel, RPMI-8226 (Leukemia)
# Procedure: as §1, §2, §3, §4
# BT-549 = assay: NCI screening panel, BT-549 (Breast Cancer)
# Procedure: as §1, §2, §3, §4
# NCI-H322M = assay: NCI screening panel, NCI-H322M (Non-Small Cell Lung Cancer)
# Procedure: as §1, §2, §3, §4
# SW-620 = assay: NCI screening panel, SW-620 (Colon Cancer)
# Procedure: as §1, §2, §3, §4
# OVCAR-8 = assay: NCI screening panel, OVCAR-8 (Ovarian Cancer)
# Procedure: as §1, §2, §3, §4
# HT29 = assay: NCI screening panel, HT29 (Colon Cancer)
# Procedure: as §1, §2, §3, §4
# HL-60(TB) = assay: NCI screening panel, HL-60(TB) (Leukemia)
# Procedure: as §1, §2, §3, §4
# UACC-62 = assay: NCI screening panel, UACC-62 (Melanoma)
# Procedure: as §1, §2, §3, §4
# OVCAR-5 = assay: NCI screening panel, OVCAR-5 (Ovarian Cancer)
# Procedure: as §1, §2, §3, §4
# RXF 393 = assay: NCI screening panel, RXF 393 (Renal Cancer)
# Procedure: as §1, §2, §3, §4
# M14 = assay: NCI screening panel, M14 (Melanoma)
# Procedure: as §1, §2, §3, §4
# A498 = assay: NCI screening panel, A498 (Renal Cancer)
# Procedure: as §1, §2, §3, §4
# SR = assay: NCI screening panel, SR (Leukemia)
# Procedure: as §1, §2, §3, §4
compound,measurement,setting,value
"CC(C)C[C@H](NC(=O)[C@H](COC(F)F)NC(=O)CN1CCOCC1)C(=O)N[C@@H](COC(F)F)C(=O)N[C@@H](CC(C)C)C(=O)[C@@]1(C)CO1 [Example 1, (2S)—N-[(1S)-1-(difluoromethoxymethyl)-2-[[(1S)-3-methyl-1-[(2R)-2-methyloxirane-2-carbonyl]butyl]amino]-2-oxo-ethyl]-2-[[(2S)-3-(difluoromethoxy)-2-[(2-morpholinoacetyl)amino]propanoyl]amino]-4-methyl-pentanamide]",Log10GI50,NCI-H23,−7.56
same,Log10LC50,NCI-H23,>−4.00
same,Log10TGI50,NCI-H23,−6.68
same,Log10GI50,PC-3,−7.49
same,Log10TGI50,PC-3,−6.81
same,Log10GI50,786-0,−6.60
same,Log10LC50,786-0,−5.05
same,Log10TGI50,786-0,−5.84
same,Log10GI50,COLO 205,−7.39
same,Log10LC50,COLO 205,−5.59
same,Log10TGI50,COLO 205,−6.72
same,Log10GI50,MCF7,<−8.00
same,Log10LC50,MCF7,>−4.00
same,Log10TGI50,MCF7,−5.18
same,Log10GI50,LOX IMVI,−7.85
same,Log10LC50,LOX IMVI,−7.16
same,Log10TGI50,LOX IMVI,−7.51
same,Log10GI50,RPMI-8226,−7.56
same,Log10LC50,RPMI-8226,>−4.00
same,Log10TGI50,RPMI-8226,−7.05
same,Log10GI50,BT-549,−7.85
same,Log10LC50,BT-549,−6.61
same,Log10TGI50,BT-549,−7.40
same,Log10GI50,NCI-H322M,−7.19
same,Log10LC50,NCI-H322M,−4.86
same,Log10TGI50,NCI-H322M,−6.45
same,Log10GI50,SW-620,−7.54
same,Log10LC50,SW-620,>−4.00
same,Log10TGI50,SW-620,−5.43
same,Log10GI50,OVCAR-8,−6.85
same,Log10LC50,OVCAR-8,>−4.00
same,Log10TGI50,OVCAR-8,>−4.00
same,Log10GI50,HT29,−7.77
same,Log10LC50,HT29,>−4.00
same,Log10TGI50,HT29,−4.15
same,Log10GI50,HL-60(TB),−7.49
same,Log10LC50,HL-60(TB),>−4.00
same,Log10TGI50,HL-60(TB),−6.30
same,Log10GI50,UACC-62,−7.60
same,Log10LC50,UACC-62,>−4.00
same,Log10TGI50,UACC-62,−6.95
same,Log10GI50,OVCAR-5,−7.39
same,Log10LC50,OVCAR-5,>−4.00
same,Log10TGI50,OVCAR-5,−6.31
same,Log10GI50,RXF 393,−6.96
same,Log10LC50,RXF 393,−6.21
same,Log10TGI50,RXF 393,−6.59
same,Log10GI50,M14,−7.25
same,Log10LC50,M14,>−4.00
same,Log10TGI50,M14,−6.31
same,Log10GI50,A498,−7.59
same,Log10LC50,A498,−6.06
same,Log10TGI50,A498,−6.93
same,Log10GI50,SR,−7.52
same,Log10LC50,SR,>−4.00
same,Log10TGI50,SR,−4.61

# Source: US20150218212A1, “FLUORINATED EPOXYKETONE-BASED TETRAPEPTIDE COMPOUNDS AND USES THEREOF AS PROTEASOME INHIBITORS” (FLUORINOV PHARMA INC., priority 2012, published 2015)
